Test system: Septoria tritici
Experiment: Test C: preventive spray on wheat seedlings, Septoria tritici (wheat leaf blotch), visual disease rating
Type: in vivo
Conditions: 100 = 100% disease control, 0 = no control, unmarked values
From the text: (§1) General protocol for preparing test suspensions for Tests A-E: the test compounds were first dissolved in acetone in an amount equal to 3% of the final volume and then suspended at the desired concentration (in ppm) in acetone and purified water (50/50 mix by volume) containing 250 ppm of the surfactant Trem® 014 (polyhydric alcohol esters). The resulting test suspensions were then used in Tests A-E. Compounds were sprayed with either a 40 ppm or 10 ppm (*) test suspension to the point of run-off on the test plants which is the equivalent of a rate of 160 g ai/ha or 40 g ai/ha, respectively.
(§2) The test suspension was sprayed to the point of run-off on wheat seedlings. The following day the seedlings were inoculated with a spore suspension of Septoria tritici (the causal agent of wheat leaf blotch) and incubated in a saturated atmosphere at 24° C. for 48 h, and then moved to a growth chamber at 20° C. for 21 days, after which time visual disease ratings were made.
(§3) Results for Tests A-E are given in Table A. In the Table, a rating of 100 indicates 100% disease control and a rating of 0 indicates no disease control (relative to the controls). A dash (-) indicates no test results.

SMILES | Test C disease control rating [%]
Cc1ccc(-c2ccc(-c3ccccc3NC(=O)c3cn(C)nc3C(F)F)cn2)o1 [compound 22] | 33
O=C(Nc1ccccc1-c1ccc(-n2ccc(C(F)(F)F)n2)nc1)c1ncccc1Cl [compound 23] | 100
O=C(Nc1ccccc1-c1ccc(-n2ccc(C(F)(F)F)n2)nc1)c1nccnc1C(F)(F)F [compound 24] | 100
O=C(Nc1ccccc1-c1ccc(-n2ccc(C(F)(F)F)n2)nc1)c1nccnc1Cl [compound 25] | 100
O=C(Nc1ccccc1-c1ccc(-n2ccc(C(F)(F)F)n2)nc1)c1ncccc1C(F)(F)F [compound 26] | 100
O=C(Nc1ccccc1-c1ccc(-n2cc(-c3cccc(F)c3)cn2)nc1)c1ncccc1C(F)(F)F [compound 27] | 100
O=C(Nc1ccccc1-c1ccc(-n2cc(-c3cc(F)cc(F)c3)cn2)nc1)c1ncccc1C(F)(F)F [compound 28] | 100
O=C(Nc1ccccc1-c1ccc(-n2cc(-c3ccccc3F)cn2)nc1)c1ncccc1C(F)(F)F [compound 29] | 100

Test system: Puccinia recondite f. sp. tritici
Experiment: Test D: preventive spray on wheat seedlings, Puccinia recondite f. sp. tritici (wheat leaf rust), visual disease rating
Type: in vivo
Conditions: 100 = 100% disease control, 0 = no control, unmarked values
From the text: as §1
as §2, with “Puccinia recondite f. sp. tritici;” for “Septoria tritici”, “rust)” for “blotch)”, “20°” for “24°”, “24” for “48”, “6” for “21”
as §3

SMILES | Test D disease control rating [%]
Cc1ccc(-c2ccc(-c3ccccc3NC(=O)c3cn(C)nc3C(F)F)cn2)o1 [compound 22] | 100
O=C(Nc1ccccc1-c1ccc(-n2ccc(C(F)(F)F)n2)nc1)c1ncccc1Cl [compound 23] | 96
O=C(Nc1ccccc1-c1ccc(-n2ccc(C(F)(F)F)n2)nc1)c1nccnc1C(F)(F)F [compound 24] | 100
O=C(Nc1ccccc1-c1ccc(-n2ccc(C(F)(F)F)n2)nc1)c1nccnc1Cl [compound 25] | 98
O=C(Nc1ccccc1-c1ccc(-n2ccc(C(F)(F)F)n2)nc1)c1ncccc1C(F)(F)F [compound 26] | 99
O=C(Nc1ccccc1-c1ccc(-n2cc(-c3cccc(F)c3)cn2)nc1)c1ncccc1C(F)(F)F [compound 27] | 98
O=C(Nc1ccccc1-c1ccc(-n2cc(-c3cc(F)cc(F)c3)cn2)nc1)c1ncccc1C(F)(F)F [compound 28] | 99
O=C(Nc1ccccc1-c1ccc(-n2cc(-c3ccccc3F)cn2)nc1)c1ncccc1C(F)(F)F [compound 29] | 89
Cc1nc(C(F)(F)F)c(C(=O)Nc2ccccc2-c2ccc(-n3ccc(C(F)(F)F)n3)nc2)s1 [compound 92] | 100
Cc1ccsc1C(=O)Nc1ccccc1-c1ccc(-n2ccc(C(F)(F)F)n2)nc1 [compound 93] | 100
Cn1cc(C(=O)Nc2ccccc2-c2ccc(-n3ccc(C(F)(F)F)n3)nc2)c(C(F)(F)F)n1 [compound 94] | 100
Cc1ccsc1C(=O)Nc1ccccc1-c1cnc(-n2ccc(C(F)(F)F)n2)c(Cl)c1 [compound 95] | 100
O=C(Nc1ccccc1-c1cnc(-n2ccc(C(F)(F)F)n2)c(Cl)c1)c1nccnc1Cl [compound 96] | 99
Cn1cc(C(=O)Nc2ccccc2-c2cnc(-n3ccc(C(F)(F)F)n3)c(Cl)c2)c(C(F)(F)F)n1 [compound 97] | 100

Test system: Botrytis cinerea
Experiment: Test A: preventive spray on tomato seedlings, Botrytis cinerea (gray mold), visual disease rating
Type: in vivo
Conditions: 100 = 100% disease control, 0 = no control relative to controls, unmarked values
From the text: as §1
The test suspension was sprayed to the point of run-off on tomato seedlings. The following day the seedlings were inoculated with a spore suspension of Botrytis cinerea (the causal agent of gray mold on many crops) and incubated in a saturated atmosphere at 20° C. for 48 h, and moved to a growth chamber at 27° C. for 2 days, after which time visual disease ratings were made.
as §3

SMILES | Test A disease control rating [%]
Cc1ccc(-c2ccc(-c3ccccc3NC(=O)c3cn(C)nc3C(F)F)cn2)o1 [compound 22] | 94
O=C(Nc1ccccc1-c1ccc(-n2ccc(C(F)(F)F)n2)nc1)c1ncccc1Cl [compound 23] | 20
O=C(Nc1ccccc1-c1ccc(-n2ccc(C(F)(F)F)n2)nc1)c1nccnc1C(F)(F)F [compound 24] | 99
O=C(Nc1ccccc1-c1ccc(-n2ccc(C(F)(F)F)n2)nc1)c1nccnc1Cl [compound 25] | 99
O=C(Nc1ccccc1-c1ccc(-n2ccc(C(F)(F)F)n2)nc1)c1ncccc1C(F)(F)F [compound 26] | 88
O=C(Nc1ccccc1-c1ccc(-n2cc(-c3cccc(F)c3)cn2)nc1)c1ncccc1C(F)(F)F [compound 27] | 89
O=C(Nc1ccccc1-c1ccc(-n2cc(-c3cc(F)cc(F)c3)cn2)nc1)c1ncccc1C(F)(F)F [compound 28] | 99
O=C(Nc1ccccc1-c1ccc(-n2cc(-c3ccccc3F)cn2)nc1)c1ncccc1C(F)(F)F [compound 29] | 77
Cc1nc(C(F)(F)F)c(C(=O)Nc2ccccc2-c2ccc(-n3ccc(C(F)(F)F)n3)nc2)s1 [compound 92] | 0
Cc1ccsc1C(=O)Nc1ccccc1-c1ccc(-n2ccc(C(F)(F)F)n2)nc1 [compound 93] | 0
Cn1cc(C(=O)Nc2ccccc2-c2ccc(-n3ccc(C(F)(F)F)n3)nc2)c(C(F)(F)F)n1 [compound 94] | 0
Cc1ccsc1C(=O)Nc1ccccc1-c1cnc(-n2ccc(C(F)(F)F)n2)c(Cl)c1 [compound 95] | 0
O=C(Nc1ccccc1-c1cnc(-n2ccc(C(F)(F)F)n2)c(Cl)c1)c1nccnc1Cl [compound 96] | 0
Cn1cc(C(=O)Nc2ccccc2-c2cnc(-n3ccc(C(F)(F)F)n3)c(Cl)c2)c(C(F)(F)F)n1 [compound 97] | 0

Test system: Erysiphe graminis f. sp. tritici
Experiment: Test E: preventive spray on wheat seedlings, Erysiphe graminis f. sp. tritici (wheat powdery mildew), visual disease rating
Type: in vivo
Conditions: 100 = 100% disease control, 0 = no control, unmarked values
From the text: as §1
The test suspension was sprayed to the point of run-off on wheat seedlings. The following day the seedlings were inoculated with a spore dust of Erysiphe graminis f. sp. tritici, (the causal agent of wheat powdery mildew) and incubated in a growth chamber at 20° C. for 8 days, after which time visual disease ratings were made.
as §3

SMILES | Test E disease control rating [%]
Cc1ccc(-c2ccc(-c3ccccc3NC(=O)c3cn(C)nc3C(F)F)cn2)o1 [compound 22] | 21
O=C(Nc1ccccc1-c1ccc(-n2ccc(C(F)(F)F)n2)nc1)c1ncccc1Cl [compound 23] | 99
O=C(Nc1ccccc1-c1ccc(-n2ccc(C(F)(F)F)n2)nc1)c1nccnc1C(F)(F)F [compound 24] | 100
O=C(Nc1ccccc1-c1ccc(-n2ccc(C(F)(F)F)n2)nc1)c1nccnc1Cl [compound 25] | 90
O=C(Nc1ccccc1-c1ccc(-n2ccc(C(F)(F)F)n2)nc1)c1ncccc1C(F)(F)F [compound 26] | 100
O=C(Nc1ccccc1-c1ccc(-n2cc(-c3cccc(F)c3)cn2)nc1)c1ncccc1C(F)(F)F [compound 27] | 96
O=C(Nc1ccccc1-c1ccc(-n2cc(-c3cc(F)cc(F)c3)cn2)nc1)c1ncccc1C(F)(F)F [compound 28] | 96
O=C(Nc1ccccc1-c1ccc(-n2cc(-c3ccccc3F)cn2)nc1)c1ncccc1C(F)(F)F [compound 29] | 82
Cc1nc(C(F)(F)F)c(C(=O)Nc2ccccc2-c2ccc(-n3ccc(C(F)(F)F)n3)nc2)s1 [compound 92] | 98
Cc1ccsc1C(=O)Nc1ccccc1-c1ccc(-n2ccc(C(F)(F)F)n2)nc1 [compound 93] | 99
Cn1cc(C(=O)Nc2ccccc2-c2ccc(-n3ccc(C(F)(F)F)n3)nc2)c(C(F)(F)F)n1 [compound 94] | 99
Cc1ccsc1C(=O)Nc1ccccc1-c1cnc(-n2ccc(C(F)(F)F)n2)c(Cl)c1 [compound 95] | 98
O=C(Nc1ccccc1-c1cnc(-n2ccc(C(F)(F)F)n2)c(Cl)c1)c1nccnc1Cl [compound 96] | 96
Cn1cc(C(=O)Nc2ccccc2-c2cnc(-n3ccc(C(F)(F)F)n3)c(Cl)c2)c(C(F)(F)F)n1 [compound 97] | 99

Test system: Stagonospora nodorum (also known as Septoria nodorum)
Experiment: Test B: preventive spray on wheat seedlings, Stagonospora nodorum (wheat glume blotch), visual disease rating
Type: in vivo
Conditions: 100 = 100% disease control, 0 = no control, unmarked values
From the text: as §1
The test suspension was sprayed to the point of run-off on wheat seedlings. The following day the seedlings were inoculated with a spore suspension of Stagonospora nodorum (also known as Septoria nodorum; the causal agent of wheat glume blotch) and incubated in a saturated atmosphere at 20° C. for 48 h, and then moved to a growth chamber at 20° C. for 6 days, after which time visual disease ratings were made.
as §3

SMILES | Test B disease control rating [%]
Cc1ccc(-c2ccc(-c3ccccc3NC(=O)c3cn(C)nc3C(F)F)cn2)o1 [compound 22] | 0
O=C(Nc1ccccc1-c1ccc(-n2ccc(C(F)(F)F)n2)nc1)c1ncccc1Cl [compound 23] | 0
O=C(Nc1ccccc1-c1ccc(-n2ccc(C(F)(F)F)n2)nc1)c1nccnc1C(F)(F)F [compound 24] | 100
O=C(Nc1ccccc1-c1ccc(-n2ccc(C(F)(F)F)n2)nc1)c1nccnc1Cl [compound 25] | 82
O=C(Nc1ccccc1-c1ccc(-n2ccc(C(F)(F)F)n2)nc1)c1ncccc1C(F)(F)F [compound 26] | 90
O=C(Nc1ccccc1-c1ccc(-n2cc(-c3cccc(F)c3)cn2)nc1)c1ncccc1C(F)(F)F [compound 27] | 99
O=C(Nc1ccccc1-c1ccc(-n2cc(-c3cc(F)cc(F)c3)cn2)nc1)c1ncccc1C(F)(F)F [compound 28] | 99
O=C(Nc1ccccc1-c1ccc(-n2cc(-c3ccccc3F)cn2)nc1)c1ncccc1C(F)(F)F [compound 29] | 99
Cc1nc(C(F)(F)F)c(C(=O)Nc2ccccc2-c2ccc(-n3ccc(C(F)(F)F)n3)nc2)s1 [compound 92] | 60
Cc1ccsc1C(=O)Nc1ccccc1-c1ccc(-n2ccc(C(F)(F)F)n2)nc1 [compound 93] | 97
Cn1cc(C(=O)Nc2ccccc2-c2ccc(-n3ccc(C(F)(F)F)n3)nc2)c(C(F)(F)F)n1 [compound 94] | 98
Cc1ccsc1C(=O)Nc1ccccc1-c1cnc(-n2ccc(C(F)(F)F)n2)c(Cl)c1 [compound 95] | 100
O=C(Nc1ccccc1-c1cnc(-n2ccc(C(F)(F)F)n2)c(Cl)c1)c1nccnc1Cl [compound 96] | 60
Cn1cc(C(=O)Nc2ccccc2-c2cnc(-n3ccc(C(F)(F)F)n3)c(Cl)c2)c(C(F)(F)F)n1 [compound 97] | 87

— patent US9730447B2, “Fungicidal amides” (E I DU PONT DE NEMOURS AND COMPANY, priority 2013, dated 2017)
